Source: patent US10765716B2, “Obesity treatment” (priority 2017, dated 2020)

How the values were obtained:
Type in all cases: in vivo, male Wistar rats
[1] = test system: high-fat diet induced obese rats; assay: Renal and liver toxicity assessment after 12 weeks of treatment period
Procedure: Whereas for therapeutic studies the animal groups were as follow: Group 1 (TA), Control; animals in this group received LFD, and distilled water Group 2 (TC), Pathological control; animals in this group received HFD, and distilled water. Groups 3 (TO), High fat diet induced obese animals in this group received standard drug Orlistat (100 mg/kg/day). Group 4 (TS): High fat diet induced obese animals in this group received standard drug Sibutramine (5 mg/kg/day), Group 5 (TC1): High fat diet induced obese animals in this group received C. latifolia extract (150 mg/kg/day). Group 6 (FC2) High fat diet induced obese animals in this group received C. latifolia extract (300 mg/kg/day). […]
Blood glucose, serum insulin, total cholesterol, triglycerides, HDL, LDL, very low density lipoproteins […], urea, creatinine, aspartate aminotransferase […], alkaline phosphatase (ALP), serum glutamic pyruvic transaminase (SGPT), and direct and total bilirubin were estimated. Fasting blood glucose levels were measured using glucometer (AccuChek Performa, Australia). Fasting insulin levels were quantified using ultra sensitive rat insulin ELISA kit (Crystal Chem. Downers Grove, USA). Insulin sensitivity was evaluated using Homeostatic Model Assessment (HOMA). […]

[2] = test system: high-fat diet induced obese rats; assay: Therapeutic study: high-fat diet induced obese rats treated for 12 weeks (food intake, body weight, lipid profile, fasting blood glucose, leptin, insulin, histology); details: for average food intake (in words): therapeutic study 12 weeks, Orlistat (TO), Sibutramine (TS), extract (TC1 and TC2)
Procedure: (§1) The crude extracts of C. latifolia were suspended in distilled water before its administration to the rat models. Orlistat and Sibutramine were used as standard drugs at doses of 100 mg/kg, and 5 mg/kg, respectively (dissolved in distilled water).
(§2) Thirty male Wistar rats (210-220 g) were obtained from the animal house facility of Dr. Panjwani Center for Molecular Medicine and Drug Research (ICCBS). All animals were kept under standard conditions of temperature and humidity with a 12 h light/dark cycle, approved by the Ethical Committee of International Center for Chemical and Biological Sciences (Protocol number: 2013-0001). After one week of acclimation period, rats were randomly divided into […]. The control group was fed with normal diet (D12450B, Research Diets, USA), whereas the other groups were fed high-fat diet (D12451, Research Diets, USA) for a period of 16-week. After 10 weeks, biochemical parameters were evaluated regularly to establish whether the model has developed the symptoms of metabolic syndrome. […]
(§3) Body weights were recorded weekly throughout the experiment. The food intake was calculated by using following formula, as described by Ghezzi et al, 2012: […]
(§4) Blood glucose, serum insulin, total cholesterol, triglycerides, HDL, LDL, very low density lipoproteins […], urea, creatinine, aspartate aminotransferase […], alkaline phosphatase (ALP), serum glutamic pyruvic transaminase (SGPT), and direct and total bilirubin were estimated. Fasting blood glucose levels were measured using glucometer (AccuChek Performa, Australia). Fasting insulin levels were quantified using ultra sensitive rat insulin ELISA kit (Crystal Chem. Downers Grove, USA). Insulin sensitivity was evaluated using Homeostatic Model Assessment (HOMA). Serum total cholesterol, triglycerides, HDL, LDL, VLDL, urea, creatinine, AST, ALP, SGPT, and direct and total bilirubin were analyzed using automatic analyzer (Hitachi, Roche Diagnostics 902, Tokyo, Japan).

high fat diet rats = assay: Preventive study: high fat diet rats given extract or standard drugs for 8 weeks (food intake, body weight, lipid profile, fasting blood glucose, liver histology); details: preventive study 8 weeks
Procedure: as §1, §2, §3, §4

Compound	Direct bilirubin ([1]; rat, in vivo, 100 mg/kg) [mg/dL]	average food intake (in words) [2]	FBG (fasting blood glucose) (high fat diet rats; 100 mg/kg (PO)) [mg/dL]	Direct bilirubin ([1]; liver toxicity, after 12 weeks of treatment, 5 mg/kg (TS)) [mg/dL]	FBG (fasting blood glucose) ([2]; after 12 weeks of treatment, 5 mg/kg (TS)) [mg/dL]	FBG (fasting blood glucose) (high fat diet rats; 5 mg/kg (PS)) [mg/dL]	Triglyceride (high fat diet rats; serum, 5 mg/kg (PS)) [mg/dL]
CCCCCCCCCCC[C@@H](C[C@@H]1OC(=O)[C@H]1CCCCCC)OC(=O)[C@H](CC(C)C)NC=O [Orlistat]	0.06 ± 0.008	decrease	79 ± 1.04				
CC(C)CC(N(C)C)C1(c2ccc(Cl)cc2)CCC1 (centres unmarked) [Sibutramine]		decrease		0.03 ± 0.004	80 ± 0.12	76 ± 2.12	51 ± 0.19
